Counter-ions that a name gives are not always drawn.

In general, IC50 refers to the concentration that gives 50% inhibition.

hBTK (full-length BTK, 6HIS-tag cleaved), sequence (Q06187 whole entry): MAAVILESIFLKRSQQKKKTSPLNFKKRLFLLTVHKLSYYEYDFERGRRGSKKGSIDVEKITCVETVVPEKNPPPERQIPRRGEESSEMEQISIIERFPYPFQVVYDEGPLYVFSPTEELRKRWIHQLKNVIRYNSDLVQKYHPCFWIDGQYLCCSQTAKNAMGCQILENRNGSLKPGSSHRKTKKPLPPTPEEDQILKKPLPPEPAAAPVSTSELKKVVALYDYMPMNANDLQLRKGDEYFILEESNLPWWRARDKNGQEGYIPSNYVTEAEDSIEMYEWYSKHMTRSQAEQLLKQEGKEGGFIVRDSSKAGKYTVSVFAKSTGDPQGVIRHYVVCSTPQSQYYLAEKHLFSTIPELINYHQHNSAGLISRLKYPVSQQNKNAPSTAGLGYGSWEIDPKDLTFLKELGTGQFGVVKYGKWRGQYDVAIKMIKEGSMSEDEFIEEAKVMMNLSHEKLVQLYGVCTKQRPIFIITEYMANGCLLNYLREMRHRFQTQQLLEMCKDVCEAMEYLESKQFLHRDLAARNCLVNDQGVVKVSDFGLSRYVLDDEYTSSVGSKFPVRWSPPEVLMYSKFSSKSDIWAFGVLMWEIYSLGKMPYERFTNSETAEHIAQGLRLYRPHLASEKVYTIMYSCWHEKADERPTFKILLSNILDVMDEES

The assay addresses hBTK (full-length BTK, 6HIS-tag cleaved) (Homo sapiens (Human), UniProt Q06187). Put plainly: BTK enzymatic activity, LANCE TR-FRET assay (Assay Method C). The class given is biochemical. The note with it: LANCE TR-FRET, 50 pM hBTK, 25 μM ATP; class 100-1000 is given as ≧100 nM-<1 μM; read-out: IC50 Btk activity values - Assay Method C. For orientation: In TR-FRET formats the signal depends on donor and acceptor labels being close together.
For the compound `CCCOc1ccnc(NC(=O)c2ccc(-c3nc([C@@H]4CCCN(C(=O)C5(C)COC5)C4)n4ccnc(N)c34)c(F)c2)c1` [Example 481, 4-(8-amino-3-{(3R)-1-[(3-methyloxetan-3-yl)carbonyl]piperidin-3-yl}imidazo[1,5-a]pyrazin-1-yl)-3-fluoro-N-(4-propoxypyridin-2-yl)benzamide], the IC50 is under 10 nM.

For the compound `CC1(C(=O)N2CCC[C@@H](c3nc(-c4ccc(C(=O)Nc5cc(C(C)(F)F)ccn5)cc4F)c4c(N)nccn34)C2)COC1` [Example 484, 4-(8-amino-3-{(3R)-1-[(3-methyloxetan-3-yl)carbonyl]piperidin-3-yl}imidazo[1,5-a]pyrazin-1-yl)-N-[4-(1,1-difluoroethyl)pyridin-2-yl]-3-fluorobenzamide], the IC50 was under 10 nM. Regarding `CCC(=O)N1CCC[C@@H](c2nc(-c3ccc(C(=O)Nc4cc(C(F)(F)F)ccn4)cc3F)c3c(N)nccn23)C1` [Example 487, 4-{8-amino-3-[(3R)-1-propanoylpiperidin-3-yl]imidazo[1,5-a]pyrazin-1-yl}-3-fluoro-N-[4-(trifluoromethyl)pyridin-2-yl]benzamide], the IC50 was under 10 nM. On to `CCC(=O)N1CCC[C@@H](c2nc(-c3ccc(C(=O)Nc4cc(C(F)F)ccn4)cc3F)c3c(N)nccn23)C1` [Example 488, 4-{8-amino-3-[(3R)-1-propanoylpiperidin-3-yl]imidazo[1,5-a]pyrazin-1-yl}-N-[4-(difluoromethyl)pyridin-2-yl]-3-fluorobenzamide], for which the IC50 is under 10 nM. Consider `Nc1nccn2c([C@@H]3CCCN(C(=O)NC4CC4)C3)nc(-c3ccc(C(=O)Nc4cc(C(F)(F)F)ccn4)cc3F)c12` [Example 489, (3R)-3-[8-amino-1-(2-fluoro-4-{[4-(trifluoromethyl)pyridin-2-yl]carbamoyl}phenyl)imidazo[1,5-a]pyrazin-3-yl]-N-cyclopropylpiperidine-1-carboxamide], for which the IC50 is under 10 nM. The figure for `CCC(=O)N1CCC[C@@H](c2nc(-c3ccc(C(=O)Nc4cc(C(F)(F)F)ccn4)cc3OC)c3c(N)nccn23)C1` [Example 490, 4-{8-amino-3-[(3R)-1-propanoylpiperidin-3-yl]imidazo[1,5-a]pyrazin-1-yl}-3-methoxy-N-[4-(trifluoromethyl)pyridin-2-yl]benzamide] is under 10 nM.

Regarding `COCCN1CCO[C@@H](c2nc(-c3ccc(C(=O)Nc4cc(C(F)(F)F)ccn4)cc3)c3c(N)nccn23)C1` [Example 491, (R)-4-(8-amino-3-(4-(2-methoxyethyl)morpholin-2-yl)imidazo[1,5-a]pyrazin-1-yl)-N-(4-(trifluoromethyl)pyridin-2-yl)benzamide], the IC50 is under 10 nM. As for `Nc1nccn2c([C@H]3CN(CCO)CCO3)nc(-c3ccc(C(=O)Nc4cc(C(F)(F)F)ccn4)cc3)c12` [Example 492, (R)-4-(8-amino-3-(4-(2-hydroxyethyl)morpholin-2-yl)imidazo[1,5-a]pyrazin-1-yl)-N-(4-(trifluoromethyl)pyridin-2-yl)benzamide], the IC50 is under 10 nM. With `CN1CC(C(=O)N2CCO[C@@H](c3nc(-c4ccc(C(=O)Nc5cc(C(F)(F)F)ccn5)cc4)c4c(N)nccn34)C2)C1` [Example 501, 4-(8-amino-3-{(2R)-4-[(1-methylazetidin-3-yl)carbonyl]morpholin-2-yl}imidazo[1,5-a]pyrazin-1-yl)-N-[4-(trifluoromethyl)pyridin-2-yl]benzamide], the IC50 was under 10 nM. In the case of `CSCCC(=O)N1CCO[C@@H](c2nc(-c3ccc(C(=O)Nc4cc(C(F)(F)F)ccn4)cc3)c3c(N)nccn23)C1` [Example 502, 4-(8-amino-3-{(2R)-4-[3-(methylsulfanyl)propanoyl]morpholin-2-yl}imidazo[1,5-a]pyrazin-1-yl)-N-[4-(trifluoromethyl)pyridin-2-yl]benzamide], the IC50 was under 10 nM.

As for `CCOCCC(=O)N1CCO[C@@H](c2nc(-c3ccc(C(=O)Nc4cc(C(F)(F)F)ccn4)cc3)c3c(N)nccn23)C1` [Example 503, 4-{8-amino-3-[(2R)-4-(3-ethoxypropanoyl)morpholin-2-yl]imidazo[1,5-a]pyrazin-1-yl}-N-[4-(trifluoromethyl)pyridin-2-yl]benzamide], the IC50 is under 10 nM. With `Nc1ncc(Cl)n2c([C@H]3CNCCO3)nc(-c3ccc(C(=O)Nc4cc(C(F)(F)F)ccn4)cc3)c12` [Example 504, 4-{8-amino-5-chloro-3-[(2R)-morpholin-2-yl]imidazo[1,5-a]pyrazin-1-yl}-N-[4-(trifluoromethyl)pyridin-2-yl]benzamide] the figure was under 10 nM. With `CC1(C(=O)N2CCO[C@@H](c3nc(-c4ccc(C(=O)Nc5cc(C(F)(F)F)ccn5)cc4)c4c(N)ncc(Cl)n34)C2)COC1` [Example 505, 4-(8-amino-5-chloro-3-{(2R)-4-[(3-methyloxetan-3-yl)carbonyl]morpholin-2-yl}imidazo[1,5-a]pyrazin-1-yl)-N-[4-(trifluoromethyl)pyridin-2-yl]benzamide], the IC50 was under 10 nM.

For `Cc1cnc(N)c2c(-c3ccc(C(=O)Nc4cc(C(F)(F)F)ccn4)cc3)nc([C@H]3CN(C(=O)C4(C)COC4)CCO3)n12` [Example 506, 4-(8-amino-5-methyl-3-{(2R)-4-[(3-methyloxetan-3-yl)carbonyl]morpholin-2-yl}imidazo[1,5-a]pyrazin-1-yl)-N-[4-(trifluoromethyl)pyridin-2-yl]benzamide], the IC50 lay in the range of 10 to 100 nM. The figure for `CC1(CN2CCO[C@@H](c3nc(-c4ccc(C(=O)Nc5cc(C(F)(F)F)ccn5)cc4)c4c(N)nccn34)C2)COC1` [Example 507, 4-(8-amino-3-{(2R)-4-[(3-methyloxetan-3-yl)methyl]morpholin-2-yl}imidazo[1,5-a]pyrazin-1-yl)-N-[4-(trifluoromethyl)pyridin-2-yl]benzamide] is under 10 nM. With `Nc1nccn2c([C@H]3CN(CC4CC4)CCO3)nc(-c3ccc(C(=O)Nc4cc(C(F)(F)F)ccn4)cc3)c12` [Example 508, 4-{8-amino-3-[(2R)-4-(cyclopropylmethyl)morpholin-2-yl]imidazo[1,5-a]pyrazin-1-yl}-N-[4-(trifluoromethyl)pyridin-2-yl]benzamide], the IC50 is under 10 nM. `Cc1cnc(N)c2c(-c3ccc(C(=O)Nc4cc(C(F)(F)F)ccn4)cc3)nc([C@H]3CN(Cc4cnn(C)c4)CCO3)n12` [Example 509, 4-(8-amino-5-methyl-3-{(2R)-4-[(1-methyl-1H-pyrazol-4-yl)methyl]morpholin-2-yl}imidazo[1,5-a]pyrazin-1-yl)-N-[4-(trifluoromethyl)pyridin-2-yl]benzamide]: the IC50 was under 10 nM.

For `COCCC(=O)N1CCO[C@@H](c2nc(-c3ccc(C(=O)Nc4cc(C(F)(F)F)ccn4)cc3)c3c(N)ncc(C)n23)C1` [Example 510, 4-{8-amino-3-[(2R)-4-(3-methoxypropanoyl)morpholin-2-yl]-5-methylimidazo[1,5-a]pyrazin-1-yl}-N-[4-(trifluoromethyl)pyridin-2-yl]benzamide], the IC50 is under 10 nM. The figure for `CCN1CCO[C@@H](c2nc(-c3ccc(C(=O)Nc4cc(C(F)(F)F)ccn4)cc3)c3c(N)ncc(C)n23)C1` [Example 511, 4-{8-amino-3-[(2R)-4-ethylmorpholin-2-yl]-5-methylimidazo[1,5-a]pyrazin-1-yl}-N-[4-(trifluoromethyl)pyridin-2-yl]benzamide] is under 10 nM. For `Nc1nccn2c([C@H]3CN(C(=O)C4CC4)CCO3)nc(-c3ccc(C(=O)Nc4cc(C(F)(F)F)ccn4)cc3F)c12` [Example 512, 4-{8-amino-3-[(2R)-4-(cyclopropylcarbonyl)morpholin-2-yl]imidazo[1,5-a]pyrazin-1-yl}-3-fluoro-N-[4-(trifluoromethyl)pyridin-2-yl]benzamide, TFA salt], the IC50 was under 10 nM. The figure for `CC1(C(=O)N2CCO[C@@H](c3nc(-c4ccc(C(=O)Nc5cc(C(F)(F)F)ccn5)cc4F)c4c(N)nccn34)C2)COC1` [Example 513, 4-(8-amino-3-{(2R)-4-[(3-methyloxetan-3-yl)carbonyl]morpholin-2-yl}imidazo[1,5-a]pyrazin-1-yl)-3-fluoro-N-[4-(trifluoromethyl)pyridin-2-yl]benzamide, TFA salt] is under 10 nM.

Take `Cc1cnc(N)c2c(-c3ccc(C(=O)Nc4cc(C(F)(F)F)ccn4)cc3F)nc([C@H]3CN(C(=O)C4(C)COC4)CCO3)n12` [Example 514, 4-(8-amino-5-methyl-3-{(2R)-4-[(3-methyloxetan-3-yl)carbonyl]morpholin-2-yl}imidazo[1,5-a]pyrazin-1-yl)-3-fluoro-N-[4-(trifluoromethyl)pyridin-2-yl]benzamide]: the IC50 is under 10 nM. The figure for `C[C@H]1CO[C@@H](c2nc(-c3ccc(C(=O)Nc4cc(C(F)(F)F)ccn4)cc3)c3c(N)nccn23)CN1C(=O)C1(C)COC1` [Example 515, 4-(8-amino-3-{(2R,5S)-5-methyl-4-[(3-methyloxetan-3-yl)carbonyl]morpholin-2-yl}imidazo[1,5-a]pyrazin-1-yl)-N-[4-(trifluoromethyl)pyridin-2-yl]benzamide, TFA salt] is under 10 nM; for `C[C@H]1CO[C@@H](c2nc(-c3ccc(C(=O)Nc4cc(C(F)(F)F)ccn4)cc3)c3c(N)nccn23)CN1C(=O)C1CC1` [Example 516, 4-{8-amino-3-[(2R,5S)-4-(cyclopropylcarbonyl)-5-methylmorpholin-2-yl]imidazo[1,5-a]pyrazin-1-yl}-N-[4-(trifluoromethyl)pyridin-2-yl]benzamide, TFA salt] it is under 10 nM; for `Nc1nccn2c([C@H]3CN(C(=O)CO)CCO3)nc(-c3ccc(C(=O)Nc4cc(C(F)(F)F)ccn4)cc3)c12` [Example 517, 4-{8-amino-3-[(2R)-4-(hydroxyacetyl)morpholin-2-yl]imidazo[1,5-a]pyrazin-1-yl}-N-[4-(trifluoromethyl)pyridin-2-yl]benzamide] it is under 10 nM. As to `CCOCC(=O)N1CCO[C@@H](c2nc(-c3ccc(C(=O)Nc4cc(C(F)(F)F)ccn4)cc3)c3c(N)nccn23)C1` [Example 518, 4-{8-amino-3-[(2R)-4-(ethoxyacetyl)morpholin-2-yl]imidazo[1,5-a]pyrazin-1-yl}-N-[4-(trifluoromethyl)pyridin-2-yl]benzamide], the IC50 was under 10 nM.
